# Experiments:
# Assay in all cases: MIC, standard microtiter broth serial dilution test
# Format in all cases: cell-based
# E. faecalis ATCC 0004 = settings: Enterococcus faecalis, ATCC0004
# S. pneumoniae 0541 = settings: Streptococcus pneumoniae
# S. pyogenes 0542 = settings: Streptococcus pyogenes
# H. influenzae ATCC 0529 = settings: Haemophilus influenzae, ATCC0529
# M. catarrhalis ATCC 0324 = settings: Moraxella catarrhalis, ATCC0324
# [1] = tested on: S. aureus Smith ATCC 0329; settings: Staphylococcus aureus, ATCC0329
MIC (E. faecalis ATCC 0004),MIC (S. pneumoniae 0541),MIC (S. pyogenes 0542),MIC (H. influenzae ATCC 0529),MIC (M. catarrhalis ATCC 0324),MIC [1],Structure (SMILES)
≤ 1 µg/mL,≤ 1 µg/mL,≤ 1 µg/mL,≤ 2 µg/mL,≤ 2 µg/mL,≤ 1 µg/mL,"CC[C@H]1OC(=O)[C@H](C)[C@@H](O[C@H]2C[C@@](C)(OC)[C@@H](OC(=O)CCNCCOCCOCC#Cc3ccc4c(c3)c(=O)c(C(=O)O)cn4CC)[C@H](C)O2)[C@H](C)[C@@H](O[C@@H]2O[C@H](C)C[C@H](N(C)C)[C@H]2O)[C@](C)(O)C[C@@H](C)CN(C)[C@H](C)[C@@H](O)[C@]1(C)O [Example 62, 4″-O-[3-(2-{2-[3-(3-Carboxy-1-ethyl-4-oxo-1,4-dihydro-quinolin-6-yl)-prop-2-ynyloxy]-ethoxy}-ethylamino)-propionyl]-azithromycin]"
≤ 1 µg/mL,≤ 1 µg/mL,≤ 1 µg/mL,≤ 2 µg/mL,≤ 2 µg/mL,≤ 1 µg/mL,"CC[C@H]1OC(=O)[C@H](C)[C@@H](O[C@H]2C[C@@](C)(OC)[C@@H](OC(=O)CCOCCOCCNc3cc4c(=O)c(C(=O)O)cn(C5CC5)c4cc3Cl)[C@H](C)O2)[C@H](C)[C@@H](O[C@@H]2O[C@H](C)C[C@H](N(C)C)[C@H]2O)[C@](C)(OC)C[C@@H](C)C(=O)[C@H](C)[C@H]2NC(=O)O[C@@]21C [Example 26, 4″-O-(3-{2-[2-(3-Carboxy-7-chloro-1-cyclopropyl-4-oxo-1,4-dihydro-quinolin-6-ylamino)-ethoxy]-ethoxy}-propionyl)-6-O-methyl-erythromycin A 11,12-cyclic carbamate]"
≤ 1 µg/mL,≤ 1 µg/mL,≤ 1 µg/mL,≤ 2 µg/mL,≤ 2 µg/mL,≤ 1 µg/mL,"CC[C@H]1OC(=O)[C@H](C)[C@@H](OC2C[C@@](C)(OC)[C@@H](OC(=O)CNC(=O)CCOCCNc3c(F)cc4c(=O)c(C(=O)O)cn(C5CC5)c4c3OC)[C@H](C)O2)[C@H](C)[C@@H](O[C@@H]2O[C@H](C)C[C@H](N(C)C)[C@H]2O)[C@](C)(O)C[C@@H](C)CN(C)[C@H](C)[C@@H]2OC(=O)O[C@]12C (some centres unmarked) [Example 14, 4″-O-(2-{3-[2-(3-Carboxy-6-fluoro-1-cyclopropyl-8-methoxy-4-oxo-1,4-dihydro-quinolin-7-ylamino)-ethoxy]-propionylamino}-acetyl)-azithromycin 11,12-cyclic carbonate]"
≤ 1 µg/mL,≤ 1 µg/mL,≤ 1 µg/mL,≤ 2 µg/mL,≤ 2 µg/mL,≤ 1 µg/mL,"CC[C@H]1OC(=O)[C@H](C)[C@@H](OC2C[C@@](C)(OC)[C@@H](OC(=O)CCOCCOCCOc3ccc4c(=O)c(C(=O)O)cn(C5CC5)c4c3)[C@H](C)O2)[C@H](C)[C@@H](O[C@@H]2O[C@H](C)C[C@H](N(C)C)[C@H]2O)[C@](C)(OC)C[C@@H](C)C(=O)[C@H](C)[C@@H](O)[C@]1(C)O (some centres unmarked) [Example 38, 4″-O-(3-{2-[2-(3-Carboxy-1-cyclopropyl-4-oxo-1,4-dihydro-quinolin-7-yloxy)-ethoxy]-ethoxy}-propionyl)-6-O-methyl-erythromycin A]"
≤ 1 µg/mL,≤ 1 µg/mL,≤ 1 µg/mL,≤ 2 µg/mL,≤ 2 µg/mL,≤ 1 µg/mL,"CC[C@H]1OC(=O)[C@H](C)[C@@H](O[C@H]2C[C@@](C)(OC)[C@@H](OC(=O)CCOCCOCCNc3cc4c(=O)c(C(=O)O)cn(C5CC5)c4cc3N(C)C)[C@H](C)O2)[C@H](C)[C@@H](OC2O[C@H](C)C[C@H](N(C)C)[C@H]2O)[C@](C)(O)C[C@@H](C)CN(C)[C@H](C)[C@@H](O)[C@]1(C)O (some centres unmarked) [Example 48, 4″-O-(3-{2-[2-(3-Carboxy-1-cyclopropyl-7-dimethylamino-4-oxo-1,4-dihydro-quinolin-6-ylamino)-ethoxy]-ethoxy}-propionyl)azithromycin]"
≤ 1 µg/mL,≤ 1 µg/mL,≤ 1 µg/mL,≤ 2 µg/mL,≤ 2 µg/mL,≤ 1 µg/mL,"CC[C@H]1OC(=O)[C@H](C)[C@@H](O[C@H]2C[C@@](C)(OC)[C@@H](OC(=O)CCOCCOCCNc3cc4c(cc3F)c(=O)c(C(=O)O)cn4C3CC3)[C@H](C)O2)[C@H](C)[C@@H](O[C@@H]2O[C@H](C)C[C@H](N(C)C)[C@H]2O)[C@](C)(OC)C[C@@H](C)C(=O)[C@H](C)[C@@H](O)[C@]1(C)O [Example 27, 4″-O-(3-{2-[2-(3-Carboxy-6-fluoro-1-cyclopropyl-4-oxo-1,4-dihydro-quinolin-7-ylamino)-ethoxy]-ethoxy}-propionyl)-6-O-methyl-erythromycin A]"
≤ 1 µg/mL,≤ 1 µg/mL,≤ 1 µg/mL,≤ 2 µg/mL,≤ 2 µg/mL,≤ 1 µg/mL,"CC[C@H]1OC(=O)[C@H](C)[C@@H](OC2C[C@@](C)(OC)[C@@H](OC(=O)CCOCCOCCOc3ccc4c(=O)c(C(=O)O)cn(C5CC5)c4c3)[C@H](C)O2)[C@H](C)[C@@H](OC2O[C@H](C)C[C@H](N(C)C)[C@H]2O)[C@](C)(O)C[C@@H](C)CN(C)[C@H](C)[C@@H](O)[C@]1(C)O (some centres unmarked) [Example 35, 4″-O-(3-{2-[2-(3-Carboxy-1-cyclopropyl-4-oxo-1,4-dihydro-quinolin-7-yloxy)-ethoxy]-ethoxy}-propionyl)-azithromycin]"
≤ 1 µg/mL,≤ 1 µg/mL,≤ 1 µg/mL,≤ 2 µg/mL,≤ 2 µg/mL,≤ 1 µg/mL,"CC[C@H]1OC(=O)[C@H](C)[C@@H](OC2C[C@@](C)(OC)[C@@H](OC(=O)CCNCCOCCCc3ccc4c(c3)c(=O)c(C(=O)O)cn4CC)[C@H](C)O2)[C@H](C)[C@@H](OC2O[C@H](C)C[C@H](N(C)C)[C@H]2O)[C@](C)(O)C[C@@H](C)CN(C)[C@H](C)[C@@H](OC)[C@]1(C)O (some centres unmarked) [Example 24, 11-O-Methyl-4″-O-(3-{2-[3-(3-Carboxy-1-ethyl-4-oxo-1,4-dihydro-quinolin-6-yl)-propoxy]-ethylamino}-propionyl)-azithromycin]"

# The next lines start with the molecule.
Structure (SMILES),MIC (E. faecalis ATCC 0004),MIC (S. pneumoniae 0541),MIC (S. pyogenes 0542),MIC (H. influenzae ATCC 0529),MIC (M. catarrhalis ATCC 0324),MIC [1]
CC[C@H]1OC(=O)[C@H](C)[C@@H](O[C@H]2C[C@@](C)(OC)[C@@H](OC(=O)CCN3CCN(CCCc4ccc5c(c4)c(=O)c(C(=O)O)cn5CC)CC3)[C@H](C)O2)[C@H](C)[C@@H](O[C@@H]2O[C@H](C)C[C@H](N(C)C)[C@H]2O)[C@](C)(O)C[C@@H](C)CN(C)[C@H](C)[C@@H](OC)[C@]1(C)O [Example 5],≤ 1 µg/mL,≤ 1 µg/mL,≤ 1 µg/mL,,,≤ 1 µg/mL
"CC[C@H]1OC(=O)[C@H](C)[C@@H](O[C@H]2C[C@@](C)(OC)[C@@H](OC(=O)CCOCCOCCNc3cc4c(=O)c(C(=O)O)cn(C5CC5)c4cc3Cl)[C@H](C)O2)[C@H](C)[C@@H](O[C@@H]2O[C@H](C)C[C@H](N(C)C)[C@H]2O)[C@](C)(OC)C[C@@H](C)C(=O)[C@H](C)[C@@H](O)[C@]1(C)O [Example 7, 4″-O-(3-{2-[2-(3-Carboxy-7-chloro-1-cyclopropyl-4-oxo-1,4-dihydro-quinolin-6-ylamino)-ethoxy]-ethoxy}-propionyl)-6-O-methyl-erythromycin A]",≤ 1 µg/mL,≤ 1 µg/mL,≤ 1 µg/mL,,,≤ 1 µg/mL
"CCOC(=O)c1cn(CC)c2ccc(C#CCN3CCN(CCC(=O)O[C@H]4[C@H](C)OC(O[C@H]5[C@H](C)[C@@H](OC6O[C@H](C)C[C@H](N(C)C)[C@H]6O)[C@](C)(OC)C[C@@H](C)C(=O)[C@H](C)[C@@H](O)[C@](C)(O)[C@@H](CC)OC(=O)[C@@H]5C)C[C@@]4(C)OC)CC3)cc2c1=O (some centres unmarked) [Example 3, 4″-O-(3-{4-[3-(3-Ethoxycarbonyl-1-ethyl-4-oxo-1,4-dihydro-quinolin-6-yl)-prop-2-ynyl]-piperazin-1-yl}-propionyl)-6-O-methyl-erythromycin A]",≤ 1 µg/mL,≤ 1 µg/mL,≤ 1 µg/mL,≤ 2 µg/mL,≤ 2 µg/mL,≤ 1 µg/mL
"CC[C@H]1OC(=O)[C@H](C)[C@@H](OC2C[C@@](C)(OC)[C@@H](OC(=O)CCNCCOCC#Cc3ccc4c(c3)c(=O)c(C(=O)O)cn4CC)[C@H](C)O2)[C@H](C)[C@@H](OC2O[C@H](C)C[C@H](N(C)C)[C@H]2O)[C@](C)(OC)C[C@@H](C)C(=O)[C@H](C)[C@@H](O)[C@]1(C)O (some centres unmarked) [Example 36, 4″-O-(3-{2-[3-(3-carboxy-1-ethyl-4-oxo-1,4-dihydro-quinolin-6-yl)-prop-2-ynyloxy]-ethylamino}-propionyl)-6-O-methyl-erythromycin A]",≤ 1 µg/mL,≤ 1 µg/mL,≤ 1 µg/mL,≤ 2 µg/mL,≤ 2 µg/mL,≤ 1 µg/mL
CC[C@H]1OC(=O)[C@H](C)[C@@H](O[C@H]2C[C@@](C)(OC)[C@@H](OC(=O)CCN3CCN(CC#Cc4ccc5c(c4)c(=O)c(C(=O)O)cn5CC)CC3)[C@H](C)O2)[C@H](C)[C@@H](O[C@@H]2O[C@H](C)C[C@H](N(C)C)[C@H]2O)[C@](C)(O)C[C@@H](C)CN(C)[C@H](C)[C@@H](OC)[C@]1(C)O [Example 4],≤ 1 µg/mL,≤ 1 µg/mL,≤ 1 µg/mL,≤ 2 µg/mL,≤ 2 µg/mL,≤ 1 µg/mL
"CC[C@H]1OC(=O)[C@H](C)[C@@H](OC2C[C@@](C)(OC)[C@@H](OC(=O)CCNCCOCC#Cc3ccc4c(c3)c(=O)c(C(=O)O)cn4CC)[C@H](C)O2)[C@H](C)[C@@H](OC2O[C@H](C)C[C@H](N(C)C)[C@H]2O)[C@](C)(O)C[C@@H](C)CN(C)[C@H](C)[C@@H](OC)[C@]1(C)O (some centres unmarked) [Example 23, 11-O-Methyl-4″-O-(3-{2-[3-(3-Carboxy-1-ethyl-4-oxo-1,4-dihydro-quinolin-6-yl)-prop-2-ynyloxy]-ethylamino}-propionyl)-azithromycin]",≤ 1 µg/mL,≤ 1 µg/mL,≤ 1 µg/mL,≤ 2 µg/mL,≤ 2 µg/mL,≤ 1 µg/mL

# — patent US20080255060A1, “Ester Linked Macrolides Useful For The Treatment of Microbial Infections” (priority 2004, published 2008)
